Test results as given in the CombiSolv-Exp solvation set (Vermeire and Green 2021).

Experiment: solvent given as SMILES

Structure (SMILES): O=COc1ccccc1
- solvation free energy, 298 K (in O): -3.82 kcal/mol

Structure (SMILES): CCCC(O)CC (stereo unspecified)
- solvation free energy, 298 K (in O): -4.06 kcal/mol

Structure (SMILES): CCCCCC(=O)OCC
- solvation free energy, 298 K (in O): -2.24 kcal/mol

Structure (SMILES): Cc1ccc(Br)cc1
- solvation free energy, 298 K (in O): -1.39 kcal/mol

Structure (SMILES): CCCCCCCCCCCC
- solvation free energy, 298 K (in CCCCCC): -8.24 kcal/mol
- solvation free energy, 298 K (in CN(C)C=O): -6.15 kcal/mol
- solvation free energy, 298 K (in OCCOCCO): -4.02 kcal/mol
- solvation free energy, 298 K (in OCCOCCOCCO): -4.27 kcal/mol
- solvation free energy, 298 K (in OCCOCCOCCOCCO): -4.58 kcal/mol

Structure (SMILES): O=C(O)CCCC(=O)O
- solvation free energy, 298 K (in O): -12.7 kcal/mol
- solvation free energy, 298 K (in O=C1CCCCC1): -12.1 kcal/mol

Structure (SMILES): COC(=O)c1ccc(I)cc1
- solvation free energy, 298 K (in CN(C)C=O): -10.7 kcal/mol
- solvation free energy, 298 K (in O): -5.09 kcal/mol

Structure (SMILES): CC1CCC(C)O1 (stereo unspecified)
- solvation free energy, 298 K (in O): -2.92 kcal/mol

Structure (SMILES): C#CC=C
- solvation free energy, 298 K (in C1COCCO1): -3.21 kcal/mol
- solvation free energy, 298 K (in CC(C)=O): -3.19 kcal/mol
- solvation free energy, 298 K (in CC(C)CC(C)(C)C): -2.21 kcal/mol
- solvation free energy, 298 K (in CN(C)C=O): -3.28 kcal/mol
- solvation free energy, 298 K (in COC(C)=O): -3.19 kcal/mol
- solvation free energy, 298 K (in Cc1ccc(C)cc1): -3.07 kcal/mol
- solvation free energy, 298 K (in O): 0.04 kcal/mol

Structure (SMILES): CC(C)COCC(C)C
- solvation free energy, 298 K (in CCCCCCCCCCCCCCCC): -4.72 kcal/mol
- solvation free energy, 298 K (in CCCCCCCCO): -4.62 kcal/mol

Structure (SMILES): CCCCCC(=O)CC(=O)CCCCC
- solvation free energy, 298 K (in O): -3.68 kcal/mol

Structure (SMILES): C#CCCCCCC
- solvation free energy, 298 K (in CN1CCCC1=O): -4.98 kcal/mol
- solvation free energy, 298 K (in CN(C)C=O): -4.99 kcal/mol
- solvation free energy, 298 K (in CS(C)=O): -4.42 kcal/mol
- solvation free energy, 298 K (in N#CCCCCC#N): -4.31 kcal/mol
- solvation free energy, 298 K (in NCCO): -3.17 kcal/mol
- solvation free energy, 298 K (in O): 0.71 kcal/mol

Structure (SMILES): ClC(Cl)Cl
- solvation free energy, 298 K (in Brc1cccc2ccccc12): -3.79 kcal/mol
- solvation free energy, 298 K (in C1CCCC1): -3.87 kcal/mol
- solvation free energy, 298 K (in C1CCOC1): -5.13 kcal/mol
- solvation free energy, 298 K (in C1COCCO1): -4.64 kcal/mol
- solvation free energy, 298 K (in C=CCCCCCCCCCCCCCC): -3.42 kcal/mol
- solvation free energy, 298 K (in CC#N): -4.31 kcal/mol
- solvation free energy, 298 K (in CC(=O)CC(C)C): -4.51 kcal/mol
- solvation free energy, 298 K (in CC(=O)N(C)C): -5.18 kcal/mol
- solvation free energy, 298 K (in CC(=O)OCc1ccccc1): -4.25 kcal/mol
- solvation free energy, 298 K (in CC(C)=O): -4.67 kcal/mol
- solvation free energy, 298 K (in CCC(C)=O): -4.72 kcal/mol
- solvation free energy, 298 K (in CCCCCCC): -3.62 kcal/mol
- solvation free energy, 298 K (in CCCCCCCC): -3.52 kcal/mol
- solvation free energy, 298 K (in CCCCCCCCC=CCCCCCCCC(=O)OCC(COC(=O)CCCCCCCC=CCCCCCCCC)OC(=O)CCCCCCCC=CCCCCCCCC): -4.02 kcal/mol
- solvation free energy, 298 K (in CCCCCCCCCCCCCC): -3.35 kcal/mol
- solvation free energy, 298 K (in CCCCCCCCCCCCCCCC): -3.38 kcal/mol
- solvation free energy, 298 K (in CCCCCCCCCCCCO): -3.65 kcal/mol
- solvation free energy, 298 K (in CCCCCCCCN(CCCCCCCC)CCCCCCCC): -3.59 kcal/mol
- solvation free energy, 298 K (in CCCCCCCCO): -3.8 kcal/mol
- solvation free energy, 298 K (in CCCCCN(CCCCC)CCCCC): -3.82 kcal/mol
- solvation free energy, 298 K (in CCCCCl): -4.08 kcal/mol
- solvation free energy, 298 K (in CCCCN(C=O)CCCC): -4.83 kcal/mol
- solvation free energy, 298 K (in CCCCN(CCCC)CCCC): -3.69 kcal/mol
- solvation free energy, 298 K (in CCCCO): -4.02 kcal/mol
- solvation free energy, 298 K (in CCCCOCCCC): -4.16 kcal/mol
- solvation free energy, 298 K (in CCN(CC)C(C)=O): -5.18 kcal/mol
- solvation free energy, 298 K (in CCNC(C)=O): -4.57 kcal/mol
- solvation free energy, 298 K (in CCNC=O): -4.41 kcal/mol
- solvation free energy, 298 K (in CCO): -4.12 kcal/mol
- solvation free energy, 298 K (in CCOC(=O)c1ccccc1C(=O)OCC): -4.1 kcal/mol
- solvation free energy, 298 K (in CCOC(C)=O): -4.61 kcal/mol
- solvation free energy, 298 K (in CN1CCCC1=O): -5.24 kcal/mol
- solvation free energy, 298 K (in CN1CCCCC1=O): -5.27 kcal/mol
- solvation free energy, 298 K (in CNC(C)=O): -4.57 kcal/mol
- solvation free energy, 298 K (in CO): -4.12 kcal/mol
- solvation free energy, 298 K (in COC(C)=O): -4.67 kcal/mol
- solvation free energy, 298 K (in COCOC): -4.27 kcal/mol
- solvation free energy, 298 K (in CS(C)=O): -4.72 kcal/mol
- solvation free energy, 298 K (in ClC(Cl)(Cl)Cl): -4 kcal/mol
- solvation free energy, 298 K (in ClCCCl): -4.17 kcal/mol
- solvation free energy, 298 K (in NC=O): -2.91 kcal/mol
- solvation free energy, 298 K (in O): -1.08 kcal/mol
- solvation free energy, 298 K (in O=C1CCCCC1): -4.73 kcal/mol
- solvation free energy, 298 K (in S=C=S): -4.15 kcal/mol
- solvation free energy, 298 K (in [2H]O[2H]): -1.26 kcal/mol
- solvation free energy, 298 K (in c1ccc2ncccc2c1): -4.41 kcal/mol

Structure (SMILES): [H][H]
- solvation free energy, 298 K (in CCCCCCCCO): 1.76 kcal/mol
- solvation free energy, 298 K (in O): 2.35 kcal/mol

Structure (SMILES): O=C(O)Cc1cccc(Cl)c1
- solvation free energy, 298 K (in O): -8.39 kcal/mol

Structure (SMILES): Clc1cc(Cl)c(-c2c(Cl)cccc2Cl)c(Cl)c1
- solvation free energy, 298 K (in O): -1.96 kcal/mol

Structure (SMILES): N#CCCOCCC#N
- solvation free energy, 298 K (in CCCCCCC): -7.82 kcal/mol

Structure (SMILES): Brc1cccc(Br)c1
- solvation free energy, 298 K (in O): -1.99 kcal/mol

Structure (SMILES): CC(=O)C(C)O (stereo unspecified)
- solvation free energy, 298 K (in O): -4.29 kcal/mol

Structure (SMILES): O=c1[nH]cc(I)c(=O)[nH]1
- solvation free energy, 298 K (in O): -18.7 kcal/mol

Structure (SMILES): NCCc1ccc(O)cc1
- solvation free energy, 298 K (in C=CCCCCCCC=C): -10 kcal/mol
- solvation free energy, 298 K (in O): -11.8 kcal/mol
